{"source": "patent US20220378773A1", "about": "“METHODS FOR TREATING LEUKEMIA AND USE OF A LEUKEMIC STEM CELL SIGNATURE TO PREDICT CLINICAL SENSITIVITY TO THERAPIES” (CELGENE CORPORATION, priority 2019, published 2022)", "key": {"[1]": {"system": "AML graft (CD34, CD15, CD14, CD11b)", "experiment": "Cell surface marker phenotype of AML graft after treatment", "assay_type": "in vivo, NOD/SCID mice", "text": "(§1) After treatment finished, cells were harvested from both injected right femur (RF) and non-injected bone marrow (BM, including left femur, 2 tibias), and stained with human antibodies to assess the engraftment levels of AML. Antibodies used for staining included: Mouse anti-human CD45-APC, CD15-FITC, CD34-APC7, CD38-PC7 (BD Biosciences, USA), CD14-PE, CD33-PC5 (Beckman Coulter, USA), CD19-V450, CD19-AF700, CD11b-APC7, CD34-BV421 (BD Biosciences, USA), and propidium iodide (PI; Invitrogen, USA).\nWith the observation that Compound D has dramatic effect against AML in mice, the question of whether Compound D targets primitive leukemic cells and induces differentiation was investigated next because AML cells are immature blasts with differentiation and maturation blockage in patients. Samples that were focused on were the samples that still had clear residual leukemia cells in the mice following Compound D treatment. […] The majority of cells harvested from the mice transplanted with patient sample 120093 were CD34+ primitive cells lacking in CD15 expression. […] CD11b is also a myeloid differentiation marker and was increased on patient 150250 grafted cells in parallel with increased expression of another myeloid differentiation marker CD15. […] The changes of CD15, CD14 and CD34 positive populations are summarized in FIGS. 12C-12E and 3 different patterns after Compound D treatment are apparent: increase, decrease, or no change of the populations in AML, graft. The samples with reduction of CD34+ primitive cells and increase of CD15+ and/or CD14+ cells are the samples responding well to Compound D (such as patient samples 110555, 110500, and 120093). […] Secondary transplantation may be performed to determine whether Compound D targeted the LSCs with self-renewal capacity."}, "[2]": {"system": "leukemic stem cells (LSCs)", "experiment": "Secondary transplantation without limiting dilution", "assay_type": "in vivo, NOD/SCID mice", "description": "For secondary transplant NOD/SCID mice were sublethally irradiated (275 cGy) and pretreated with anti-CD122 antibody (200 μg/mouse) to deplete residual host natural killer cells. On the day of transplantation, viably frozen cells harvested from the vehicle- or Compound D-treated primary mice were thawed, counted, mouse-cell depleted (Mouse Cell Depletion Kit, Miltenyi Biotec, USA), and transplanted intrafemorally into the pretreated secondary mice at limiting doses described above. For secondary transplant without LDA, thawed cells were not depleted of mouse cells before transplantation. At 12 weeks post secondary transplantation, mice were euthanized, and bone marrow was collected and analyzed.\nTo determine if quiescent LSCs are resistant to Compound D, secondary transplantation of AML cells of high responders was performed. High responders were identified as samples in which leukemia cells were almost undetectable in the primary mouse bone marrow following Compound D treatment. If rare quiescent LSCs are maintained in the residual leukemia cells following Compound D dosing, then those quiescent LSCs may become active and repopulate secondary mice after undergoing serial transplantations. Four LSC17 high samples that had AML blasts eradicated by Compound D treatment were selected for secondary transplantation (see Table 9) by injecting total combined bone marrow cells collected from 5 primary mice treated with either vehicle or Compound D into 5 secondary mice. In this way cells collected from one primary mouse were injected into one secondary mouse without any cell dose dilution or losing any residual cells. […] Cells from AML Patient 150238 harvested from vehicle-treated primary mice repopulated only one of 5 secondary mice."}, "GSPT1": {"target": "T1, GSPT1 (Homo sapiens, UniProt P15170+Q96SW2)", "T1 construct": "endogenous in cells; host or cells: primary AML patient cells (peripheral blood mononuclear cells) in short-term suspension culture", "T1 sequence (P15170 whole entry)": "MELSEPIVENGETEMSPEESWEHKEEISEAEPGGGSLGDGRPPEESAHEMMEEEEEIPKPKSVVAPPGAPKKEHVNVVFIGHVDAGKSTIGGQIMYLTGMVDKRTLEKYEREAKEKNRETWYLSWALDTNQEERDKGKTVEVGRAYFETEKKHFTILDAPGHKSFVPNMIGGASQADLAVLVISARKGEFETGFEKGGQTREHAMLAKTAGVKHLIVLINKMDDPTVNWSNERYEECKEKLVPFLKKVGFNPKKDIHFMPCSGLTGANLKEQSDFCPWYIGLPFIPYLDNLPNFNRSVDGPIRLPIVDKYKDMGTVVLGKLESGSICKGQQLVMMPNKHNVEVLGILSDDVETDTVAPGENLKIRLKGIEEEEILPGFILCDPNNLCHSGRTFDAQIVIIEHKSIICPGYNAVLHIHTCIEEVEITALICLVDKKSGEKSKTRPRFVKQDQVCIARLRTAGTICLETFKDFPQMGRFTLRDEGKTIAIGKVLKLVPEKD", "T1 sequence (Q96SW2 whole entry)": "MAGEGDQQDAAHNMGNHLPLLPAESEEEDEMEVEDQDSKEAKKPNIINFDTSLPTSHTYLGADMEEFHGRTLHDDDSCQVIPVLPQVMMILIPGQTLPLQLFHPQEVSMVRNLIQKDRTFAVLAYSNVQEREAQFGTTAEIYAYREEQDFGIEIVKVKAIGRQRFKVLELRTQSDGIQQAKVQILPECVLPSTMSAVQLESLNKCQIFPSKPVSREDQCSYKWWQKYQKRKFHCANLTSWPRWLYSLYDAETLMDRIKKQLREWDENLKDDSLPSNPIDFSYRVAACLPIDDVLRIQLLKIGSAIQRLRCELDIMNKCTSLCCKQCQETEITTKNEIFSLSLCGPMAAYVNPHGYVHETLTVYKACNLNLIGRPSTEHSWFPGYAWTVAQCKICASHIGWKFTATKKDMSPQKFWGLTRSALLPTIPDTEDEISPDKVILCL", "T1 sequence (Q16531 whole entry partner)": "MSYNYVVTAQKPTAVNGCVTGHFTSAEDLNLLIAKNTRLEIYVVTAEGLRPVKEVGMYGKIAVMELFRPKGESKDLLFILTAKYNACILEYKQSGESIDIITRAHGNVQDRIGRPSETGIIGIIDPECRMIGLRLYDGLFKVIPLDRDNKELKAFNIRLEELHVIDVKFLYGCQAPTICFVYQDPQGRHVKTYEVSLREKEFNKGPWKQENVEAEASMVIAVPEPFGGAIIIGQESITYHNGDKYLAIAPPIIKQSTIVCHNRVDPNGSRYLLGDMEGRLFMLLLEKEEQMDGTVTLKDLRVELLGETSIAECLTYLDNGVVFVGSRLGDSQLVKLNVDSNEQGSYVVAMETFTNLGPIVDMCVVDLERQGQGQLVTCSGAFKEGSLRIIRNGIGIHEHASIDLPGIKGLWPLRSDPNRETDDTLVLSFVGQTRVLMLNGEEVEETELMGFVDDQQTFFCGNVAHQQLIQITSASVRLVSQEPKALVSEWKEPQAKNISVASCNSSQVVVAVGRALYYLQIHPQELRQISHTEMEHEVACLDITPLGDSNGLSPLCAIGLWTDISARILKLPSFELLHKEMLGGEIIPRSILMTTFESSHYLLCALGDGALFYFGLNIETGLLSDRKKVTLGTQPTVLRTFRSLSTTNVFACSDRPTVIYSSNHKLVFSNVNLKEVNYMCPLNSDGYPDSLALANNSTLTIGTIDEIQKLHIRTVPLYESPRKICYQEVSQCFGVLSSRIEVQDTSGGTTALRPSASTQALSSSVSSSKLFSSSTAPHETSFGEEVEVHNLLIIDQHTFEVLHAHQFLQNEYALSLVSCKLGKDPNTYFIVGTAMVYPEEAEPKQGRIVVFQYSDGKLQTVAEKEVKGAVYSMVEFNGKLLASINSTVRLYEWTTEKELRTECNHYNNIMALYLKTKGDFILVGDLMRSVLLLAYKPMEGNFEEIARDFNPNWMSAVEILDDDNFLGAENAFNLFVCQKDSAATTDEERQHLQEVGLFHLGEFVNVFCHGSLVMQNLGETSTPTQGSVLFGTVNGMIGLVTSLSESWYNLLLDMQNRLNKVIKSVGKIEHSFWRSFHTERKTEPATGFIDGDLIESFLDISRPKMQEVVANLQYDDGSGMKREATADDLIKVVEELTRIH", "experiment": "In vivo GSPT1 expression in xenograft AML model (intracellular FACS)", "set-up": "species or system mice", "description": "After 4 weeks of transplantation with AML cells, mice were treated with Compound D at 2.5 mg/kg twice a day for 3 doses totally. Four hours after the last treatment, cells were harvested from both injected RF and non-injected BM of each mouse and were stained with CD45-FITC (BD Biosciences, USA), fixed and permeabilized. Cells were then stained with GSPT1-Alexa Fluor 647 for intracellular FACS to detect the expression of GSPT1 in engrafted leukemic cells."}, "[3]": {"assay_type": "physicochemical", "text": "Formulation: 5% NMP/45% polyethylene glycol (PEG) 400/50% Saline; NMP—Catalogue no. 69118 (new no. M79603-1L), Fluka; PEG400—Catalogue no. 81172-1L, Fluka; Saline—0.9% sodium chloride.\nPreparation: Weigh the desired amount of compound in glass vial. Add NMP and vortex. Make sure that entire compound is wet. Add PEG400 and vortex until clear solution without particulates. Add saline slowly and mix thoroughly for about a minute with hand held homogenizer with disposable tip."}, "AML graft": {"system": "AML graft", "experiment": "In vivo apoptosis and cell death (propidium iodide staining)", "set-up": "species or system NOD/SCID mice", "settings": "after 4 weeks treatment", "text": "as §1\nFollowing 4 weeks Compound D treatment, harvested cells were stained with propidium iodide (PI) for detecting apoptotic and dead leukemia cells. […] To determine whether GSPT1 can also be degraded by Compound D administration in vivo, leukemia cells were harvested after 3 doses of Compound D treatment for intracellular flow cytometry to assess the levels of GSPT1 in both injected RF and non-injected BM. […] It seems that Compound D degraded GSPT1 more profoundly in the injected RF than in non-injected BM. More samples had lesser GSPT1 reduction in the non-injected BM than in RF. Perhaps this reflects differences in the niche or blood supply between these sites; intrafemoral (IF) injection involves reaming out the femoral cavity prior to cell injection. […]"}}, "note": "Entries after “also recorded” stand apart in the source; their conditions may differ."}
{"smiles": "O=C1CCC(N2Cc3cc(CNC(=O)C(F)(F)c4ccc(Cl)cc4)ccc3C2=O)C(=O)N1", "note": "(stereo not shown) [Compound D, 2-(4-chlorophenyl)-N-((2-(2,6-dioxopiperidin-3-yl)-1-oxoisoindolin-5-yl)methyl)-2,2-difluoroacetamide]", "values": [{"measurement": "expression of myeloid differentiation marker CD15", "setting": "[1]; 3 representative samples", "result": "clear increased expression"}, {"measurement": "CD11b+ leukemia cells", "setting": "[1]; Patient 130826", "result": "decreased CD11b+ leukemia cells"}, {"measurement": "expression of monocytic cell marker CD14", "setting": "[1]; graft of patient 120287", "result": "induced expression of monocytic cell marker CD14"}, {"measurement": "CD11b on grafted cells", "setting": "[1]; patient 150250", "result": "increased"}, {"measurement": "CD14+ cells", "setting": "[1]; patient sample 100474", "result": "only eliminated CD14+ cells"}, {"measurement": "CD15 expression", "setting": "[1]; patient sample 120093", "result": "induced CD15 expression"}, {"measurement": "CD34+ cell population", "setting": "[1]; patient sample 120093", "result": "reduced CD34+ cell population"}, {"measurement": "CD34+ cells in the graft", "setting": "[1]; patient samples 100348 and 130826", "result": "reduced CD34+ cells"}, {"measurement": "repopulation of secondary mice", "setting": "[2]; AML 0590 and AML 110102, cells from Compound D-treated primary mice", "result": "did not repopulate the secondary mice"}, {"measurement": "LSC Status in Secondary Mice Injected with Compound D Treated Primary Cells", "setting": "[2]; Patient 110625", "result": "repopulated the bone marrow of one secondary mouse; also recorded: LSC in BM"}, {"measurement": "No. mice with LSC engrafted/No. injected mice in the group", "setting": "[2]; Patient 110625, cells from Compound D-treated primary mice", "result": "1/5 (in BM"}, {"measurement": "LSC Status in Secondary Mice Injected with Compound D Treated Primary Cells", "setting": "[2]; Patient 130311", "result": "did not proliferate/repopulate any of the secondary mice; also recorded: not engrafted"}, {"measurement": "No. mice with LSC engrafted/No. injected mice in the group", "setting": "[2]; Patient 130311, cells from Compound D-treated primary mice", "result": "0/4"}, {"measurement": "LSC Status in Secondary Mice Injected with Compound D Treated Primary Cells", "setting": "[2]; Patient 130826", "result": "did not proliferate/repopulate any of the secondary mice; also recorded: not engrafted"}, {"measurement": "No. mice with LSC engrafted/No. injected mice in the group", "setting": "[2]; Patient 130826, cells from Compound D-treated primary mice", "result": "0/5"}, {"measurement": "LSC Status in Secondary Mice Injected with Compound D Treated Primary Cells", "setting": "[2]; Patient 150238", "result": "did not repopulate any secondary mice; also recorded: no LSC"}, {"measurement": "No. mice with LSC engrafted/No. injected mice in the group", "setting": "[2]; Patient 150238, cells from Compound D-treated primary mice", "result": "0/5"}, {"measurement": "levels of GSPT1 in engrafted leukemia cells", "setting": "GSPT1; 2.5 mg/kg twice a day, 3 doses, 17 samples", "result": "decreased in RF or BM, or in both RF and BM in the majority of 17 samples tested"}, {"measurement": "GSPT1 reduction", "setting": "GSPT1; Pt120287 and 110555", "result": "clear GSPT1 reduction in both RF and BM"}, {"measurement": "GSPT1 reduction", "setting": "GSPT1; Pt130607 and 150250", "result": "did not show dramatic GSPT1 reduction"}, {"measurement": "stability in formulation", "setting": "[3]", "result": "not stable in the formulation over time"}, {"measurement": "number of PI+ events in mouse bone marrow", "setting": "AML graft", "result": "significantly increased"}]}
